PubChem BioAssay AID2060616 (Molecular Pharmacology Branch, DTP, NCI, 2025)

System: 377384-186-R-J1-PDC complex spheroid viability
Assay: Anticancer human tumor 377384-186-R-J1-PDC patient-derived pancreatic carcinoma cell line growth inhibition [CLK]
Conditions: for IC50: curve of first compound; for viability, T/C: stronger effect = lower value
Description: A high-throughput screen of multi-cell type tumor spheroids was designed to identify active combinations of […] and targeted small molecules. Complex spheroids include a stromal component modeled by human endothelial cells (HUVEC) and fibroblasts modeled by human mesenchymal stem cells (MSCs). The concentration ranges selected for each drug and investigational agent were based upon clinically achievable concentrations if the clinical Cmax of the agent was known.
Compounds. The drugs and investigational agents: cirtuvivint (SM08502; NSC835563), CC-671 (NSC850746), vemurafenib (NSC761431), tapotoclax (NSC804041), sotorasib (NSC818433), adagrasib (NSC831453), MRTX-1133 (NSC836407), BAY2416964 (NSC825713), copanlisib (NSC816437), inavolisib (NSC800729), abemaciclib (NSC768073), osimertinib (NSC779217), entinostat (NSC756642), eltanexor (KPT-8602, NSC794443), venetoclax (NSC766270), ceralasertib (NSC777638), bortezomib (NSC756655), olaparib (NSC753686), talazoparib (NSC767125), alisertib (NSC759677), peposertib (NSC802822), gemcitabine (NSC613327), 5-fluorouracil (NSC19893), SN-38 (NSC673596), oxaliplatin (NSC266046), paclitaxel (NSC125973), and doxorubicin (NSC123127), were obtained from the National Cancer Institute (NCI) Developmental Therapeutics Program Chemical Repository. The FDA-approved anticancer drug set is available from the Developmental Therapeutics Program at https://dtp.cancer.gov/organization/dscb/obtaining/available plates.htm. […] The stock solutions were prepared in dimethyl sulfoxide (DMSO, Sigma-Aldrich, St. Louis, MO, cat. D2650), except for the platinum complexes which were prepared in saline (Quality Biological, Gaithersburg, MD, cat. 114-055-101), at 800-fold the tested concentration and stored at -70 degrees C prior to their use. All drugs and investigational agents were tested over a range starting from a high concentration at or near the clinical Cmax and decreasing in half-log increments. If the clinical Cmax for an agent had not been determined, the highest concentration tested was 10 microM.
Cell Culture. All cells were maintained in an incubator at 37 degrees C and 5% CO2 with 95% humidity. The PDC lines were cultured according to standard operating procedures established by the NCI PDMR. Briefly, all PDCs were thawed and cultured in Matrigel-coated flasks prepared with a working solution of 1X Ham's F-12 nutrient mix, without supplementation (Invitrogen, Waltham, MA, cat. 11765054), 100 U/mL penicillin-streptomycin (Invitrogen, cat. 15140122), and 2.5% Matrigel (Corning Inc., Corning, NY, cat. 354248) for the first three passages. The 947758-054-R-J2-PDC line was cultured in 6B/Colon 1A media, which includes advanced DMEM/F-12 (Thermo Fisher Scientific, cat. 12634028), 10 mM HEPES (Thermo Fisher Scientific, cat. 15630080), 1X GlutaMAX supplement (Thermo Fisher Scientific, cat. 35050061), 0.1 mg/mL primocin (InvivoGen, cat. ant-pm-2), 10% defined fetal bovine serum, heat inactivated (HyClone Laboratories Inc., cat. SH30070.03HI), 1.25 mM N-Acetyl-L-cysteine (Sigma-Aldrich, cat. A9165), 10 mM nicotinamide (Sigma-Aldrich, cat. N0636), 1X B-27 supplement (Thermo Fisher Scientific, cat. 17504044), 1X N-2 supplement (Thermo Fisher Scientific, cat. 17502048), and 10 microM Y-27632 dihydrochloride (Tocris Bioscience, cat. 1254). The 876862-298-R-J1-PDC was cultured in 6E media, which includes all 6B/Colon 1A media components plus 50% L-WRN conditioned media (ATCC, cat. CRL-3276), 50 ng/mL recombinant human EGF recombinant protein (hEGF; Thermo Fisher Scientific, cat. PHG0311), 10 ng/mL recombinant human fibroblast growth factor 10 (hGFG-10; PeproTech, cat. 100-26), 1 ng/mL recombinant human fibroblast growth factor 2 (hFGF-2; PeproTech, cat. 100-18B), and 1 µM prostaglandin E2 (PGE2; Tocris, cat. 2296). The 227483-062-R1-J1-PDC line was cultured in Panc media, containing all 6E components except hFGF-2, with the addition of 500 nM SB-431542 (Selleckchem, cat. S1067) and 10 nM gastrin (Tocris, cat. 3006). […]
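Also: spheroids exposed to agents for 7 days before reading.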
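For viability, T/C in this document: luminescence signal used as a stand-in for viable cells.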

Compound: C#Cc1c(F)ccc2cc(O)cc(-c3ncc4c(N5CC6CCC(C5)N6)nc(OCC56CCCN5CC(F)C6)nc4c3F)c12 (configuration not stated) + CN1CCN(c2cc(C(=O)Nc3cc4cc(-c5cnn(C)c5)ccc4cn3)ccn2)CC1
- IC50 (second compound 0.0316 µM): < 31.6 nM
- IC50 (second compound 0.1 µM): < 31.6 nM
- IC50 (second compound 0.316 µM): < 31.6 nM
- IC50 (second compound 1 µM): < 31.6 nM
- IC50 (second compound 3.16 µM): < 31.6 nM
- IC50 (second compound 10 µM): < 31.6 nM
- viability, T/C (second compound 0.0316 µM, first compound 0.0316 µM): 23.7%
- viability, T/C (second compound 0.0316 µM, first compound 0.1 µM): 9.22%
- viability, T/C (second compound 0.0316 µM, first compound 0.316 µM): 5.47%
- viability, T/C (second compound 0.0316 µM, first compound 1 µM): 3.59%
- viability, T/C (second compound 0.0316 µM, first compound 3.16 µM): 1.91%
- viability, T/C (second compound 0.0316 µM, first compound 10 µM): 2.78%
- viability, T/C (second compound 0.1 µM, first compound 0.0316 µM): 17.5%
- viability, T/C (second compound 0.1 µM, first compound 0.1 µM): 9.27%
- viability, T/C (second compound 0.1 µM, first compound 0.316 µM): 3.82%
- viability, T/C (second compound 0.1 µM, first compound 1 µM): 2.55%
- viability, T/C (second compound 0.1 µM, first compound 3.16 µM): 1.86%
- viability, T/C (second compound 0.1 µM, first compound 10 µM): 1.3%
- viability, T/C (second compound 0.316 µM, first compound 0.0316 µM): 6.63%
- viability, T/C (second compound 0.316 µM, first compound 0.1 µM): 2.9%
- viability, T/C (second compound 0.316 µM, first compound 0.316 µM): 2.56%
- viability, T/C (second compound 0.316 µM, first compound 1 µM): 1.32%
- viability, T/C (second compound 0.316 µM, first compound 3.16 µM): 1.33%
- viability, T/C (second compound 0.316 µM, first compound 10 µM): 0.82%
- viability, T/C (second compound 1 µM, first compound 0.0316 µM): 0.45%
- viability, T/C (second compound 1 µM, first compound 0.1 µM): 0.37%
- viability, T/C (second compound 1 µM, first compound 0.316 µM): 0.27%
- viability, T/C (second compound 1 µM, first compound 1 µM): 0.32%
- viability, T/C (second compound 1 µM, first compound 3.16 µM): 0.34%
- viability, T/C (second compound 1 µM, first compound 10 µM): 0.4%
- viability, T/C (second compound 3.16 µM, first compound 0.0316 µM): 0.26%
- viability, T/C (second compound 3.16 µM, first compound 0.1 µM): 0.6%
- viability, T/C (second compound 3.16 µM, first compound 0.316 µM): 0.24%
- viability, T/C (second compound 3.16 µM, first compound 1 µM): 0.33%
- viability, T/C (second compound 3.16 µM, first compound 3.16 µM): 0.38%
- viability, T/C (second compound 3.16 µM, first compound 10 µM): 0.56%
- viability, T/C (second compound 10 µM, first compound 0.0316 µM): 0.1%
- viability, T/C (second compound 10 µM, first compound 0.1 µM): 0.21%
- viability, T/C (second compound 10 µM, first compound 0.316 µM): 0.19%
- viability, T/C (second compound 10 µM, first compound 1 µM): 0.33%
- viability, T/C (second compound 10 µM, first compound 3.16 µM): 0.22%
- viability, T/C (second compound 10 µM, first compound 10 µM): 0.49%
